Test results from article PMC6086658, “Unified mechanisms for self-RNA recognition by RIG-I Singleton-Merten syndrome variants” (eLife, 2018).
Where a chain is given by its changes, count along the chain named.

Experiments:
RIG-I K270I = target: T1, RIG-I K270I (Homo sapiens, UniProt O95786, K270I); test: MANT-nucleotide binding, tryptophan fluorescence FRET
T1 construct: different full-length RIG-I mutants (1–925, N-terminal His-tag); made in house; host or cells: High Five (Trichoplusia ni) insect cells, baculovirus, pFBDM vector
T1 sequence (O95786 1-925 K270I): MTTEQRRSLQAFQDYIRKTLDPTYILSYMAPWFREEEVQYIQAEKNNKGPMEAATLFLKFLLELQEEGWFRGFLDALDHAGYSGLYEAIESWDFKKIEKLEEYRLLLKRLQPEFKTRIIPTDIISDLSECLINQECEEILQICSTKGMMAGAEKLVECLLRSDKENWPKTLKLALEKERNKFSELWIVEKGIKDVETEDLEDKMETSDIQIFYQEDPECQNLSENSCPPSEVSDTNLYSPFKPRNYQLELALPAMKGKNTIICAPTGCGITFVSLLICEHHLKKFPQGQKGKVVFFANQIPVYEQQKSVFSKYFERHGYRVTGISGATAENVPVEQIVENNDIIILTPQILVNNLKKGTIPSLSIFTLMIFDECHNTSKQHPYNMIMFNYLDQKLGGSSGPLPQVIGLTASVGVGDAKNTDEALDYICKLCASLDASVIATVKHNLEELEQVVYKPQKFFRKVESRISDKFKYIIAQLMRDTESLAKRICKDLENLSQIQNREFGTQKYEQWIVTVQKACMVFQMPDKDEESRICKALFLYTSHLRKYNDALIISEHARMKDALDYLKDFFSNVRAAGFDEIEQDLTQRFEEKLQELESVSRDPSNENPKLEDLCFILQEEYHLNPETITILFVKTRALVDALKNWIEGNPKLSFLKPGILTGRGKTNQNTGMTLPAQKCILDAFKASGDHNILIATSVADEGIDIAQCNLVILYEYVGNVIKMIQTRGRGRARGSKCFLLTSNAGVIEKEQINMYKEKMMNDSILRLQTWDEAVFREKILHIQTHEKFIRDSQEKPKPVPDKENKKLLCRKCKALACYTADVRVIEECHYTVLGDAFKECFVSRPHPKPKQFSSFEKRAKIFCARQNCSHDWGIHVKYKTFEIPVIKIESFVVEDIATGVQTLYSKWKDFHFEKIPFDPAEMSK
Experimental: (§1) Binding of MANT-ATP and MANT-ATPγS to different full-length RIG-I mutants (1–925, N-terminal His-tag) was determined via Förster resonance energy transfer from RIG-I to MANT-ATP (Jena Bioscience, Jena, Germany). All samples were prepared in 96-well black chimney microplates. 2.2 µM protein and equimolar concentrations of a 14mer dsRNA (5'-CGACGCUAGCGUCG-3', see 'Protein crystalization') were pre-incubated with different MANT-ATP concentrations (0.2 µM – 200 µM) for 15 min at room temperature in assay buffer (25 mM HEPES, 50 mM NaCl, 5 mM MgCl2, 1 mM DTT, pH 7). Fluorescence of MANT-ATP was measured in a TECAN M1000 microplate reader at λex/em = 290/448 nm, gain = 170 using an average of five reads per well. Assays were performed four times in independent experiments using the same protein purification batch. For determination of affinities fluorescence values were fitted to Equation (1) using R, where y is the fluorescence, [P] is the protein concentration, Bmax is the maximal fluorescence and KD is the dissociation constant. Fitting was performed globally on all available datasets. Representative values in figures are mean values ± SD.

RIG-I C268F = target: T2, RIG-I C268F (Homo sapiens, UniProt O95786, C268F); test: as above
T2 construct: made in house; host or cells: High Five (Trichoplusia ni) insect cells, baculovirus, pFBDM vector
T2 sequence (O95786 1-925 C268F): T1 sequence (O95786 1-925 K270I) with C268F, I270K
Experimental: as §1

[1] = presence of equimolar 14mer dsRNA, n.f. = no fit possible as no saturation was reached

MANT-ATP
Kd (RIG-I K270I; absence of RNA, n = 4, read-out: Affinity (KD) to RIG-I K270I): 298 ± 81 µM | Affinity (KD) to RIG-I K270I + RNA (RIG-I K270I; [1]): n.f. | Kd (RIG-I C268F; absence of RNA, n = 4, read-out: Affinity (KD) to RIG-I C268F): 166 ± 34 µM | Affinity (KD) to RIG-I C268F + RNA (RIG-I C268F; [1]): n.f.
